From patent publication US8784899B2, “Compositions and methods for cancer treatment” (priority 2005, dated 2014)

Columns and labels:
Assay type in all cases: cell-based
[1] = test system: NB4, AsR2 and IM9 cells; assay: Apoptosis by propidium iodide staining and flow cytometry; conditions: 48 hours, all concentrations of arsenic tested
Description: Quantitation of apoptotic cells was performed as previously described (Hardin et al. J. Immunol. Methods. 1992; 154:99-107). Cells were treated, washed in buffer (PBS/5% FBS/0.01 M NaN3) at 4° C., pelleted, and resuspended in 0.5 ml of hypotonic fluorochrome solution containing 50 μg/ml propidium iodide (PI), 0.1% sodium citrate, and 0.1% Triton X-100™. Fluorescence was measured on a Becton-Dickinson™ FACS Calibur. Cells undergoing DNA fragmentation and apoptosis (those in which PI fluorescence was weaker than the typical G0-G1 cell cycle peak) were quantified using CellQUEST™ software.
To evaluate whether the growth inhibitory effect observed upon combined treatment of As2O3 and trolox in NB4, AsR2 and IM9 cells was due to the induction of apoptosis, cells were treated for 48 hours, subsequently stained with PI and analyzed by flow cytometry. […] To confirm an enhanced induction of apoptotic death, FITC-labeled Annexin V, which detects phosphatidylserine residues appearing on the external surface of early apoptotic cells, was used. Consistent with the increase in the subG0 subpopulation after PI staining, trolox augmented the percentage of cells positive for Annexin V (FIG. 2B lower panels). To further confirm the induction of apoptosis by the combination of As2O3 and trolox, we evaluated caspase 3 activation and PARP cleavage. […] Similar results were obtained with AsR2 and IM9 cells.

[2] = test system: Normal human PBMC; assay: Colony forming unit assay of peripheral blood mononuclear cells
Description: Peripheral blood mononuclear cells (PBMC) were obtained from two healthy normal donors after obtaining informed consent and were collected into tubes containing 7.2 mg K2EDTA. The blood was diluted 1:3 in PBS, layered onto an equal volume of Ficoll-Plaque™ PLUS (Amershan Biosciences, Piscataway, N.J.) and centrifuged at 1500 rpm for 30 minutes. The mononuclear cell layer was collected and washed twice in PBS. Methylcellulose media was prepared by combining IMDM, 30% FBS, 1% bovine serum albumin, 10^−4M 2-mercaptoethanol, 2 mM L-glutamine, 0.1U penicillin, 0.1 μg/ml streptomycin, granulocyte-macrophage colony-stimulating factor (GM-CSF; 10 ng/ml), interleukin-3 (IL-3; 10 ng/ml0) and erythropoietin (EPO; 3U/ml). PBMC were seeded in this media at a concentration of 300,000 cells/ml and treated with or without As2O3, trolox or the combination. Cultures were performed in triplicate in 35 mm^2 dishes and incubated at 37° C. in 4% CO2. Colonies derived from […] (BFU-E) and CFU-GM were counted on day 7 and 13.

[3] = test system: NB4 cells; assay: Growth assay, viable cells by trypan blue exclusion, NB4; conditions: NB4, 100 μM trolox alone, any time point
Description: NB4, IM9 and AsR2 cells were seeded at 1×10^5 cells/ml in 24-well plates. Cells were treated with various concentrations of As2O3 or doxorubicin, alone or in combination with 100 μM trolox for six days. Viable cells were counted by trypan blue exclusion on day 1, 3 and 6. All cells were maintained at a density lower than 1×10^6 cells/ml through dilution as required, and media +/− treatment was replaced every third day. MCF-7, MDA-231 and T47D were seeded in 24-well plates at a density of 4000 cells/well. The next day, fresh media containing As2O3+/− trolox was added. On the days indicated, cells were fixed in 10% trichloroacetic acid and subsequently stained with sulforhodamine B (SRB). Bound SRB was solubilized in 10 mM unbuffered Tris and optical density was measured at 570 nm in a microplate reader.

[4] = test system: Heme oxygenase-1 (HO-1); assay: HO-1 protein levels by Western blot; conditions: NB4, IM9 and AsR2 cells, 24 hours
Description: Cell extracts were washed with cold PBS and resuspended in 0.1 ml lysis buffer (5 mM NaH2PO4, 1 mM DTT, 10% glycerol, 1 mM PMSF, 10 μg/ml each aprotinin and leupeptin, pH 7.4) at 4° C. Extracts were centrifuged at 14,000 rpm at 4° C., and supernatants were transferred to fresh tubes. Protein concentration was determined with the Bio-Rad™ protein assay (Bio-Rad, Mississauga, Ontario, Canada). To detect HO-1 or PARP, 50 μg of protein was added to an equal volume of 2× sample buffer and run on a 10% SDS-polyacrylamide gel. Proteins were transferred to nitrocellulose membranes (Bio-Rad), stained with Ponceau S in 5% acetic acid to ensure equal protein loading, and blocked with 5% milk in PBS containing 0.5% Triton X-100™ for 1 hour at room temperature. The membrane was hybridized overnight at 4° C. with antibody against PARP (1:1000; Oncogene) or 3 hours with an antibody against HO-1 (1:1000; StressGen). Following three washes with PBS and 0.5% Triton X-100™, blots were incubated with a goat anti-rabbit antibody (1:10,000; PharMingen) for one hour at room temperature. Bands were visualized by enhanced chemiluminescence (Amersham Pharmacia Biotech, Baie d'Urfe, Quebec, Canada). Immunostaining for β-actin was used to confirm equal protein loading. Immune complex kinase assays for c-jun kinase activity were performed as previously described (Davison et al. Blood. 2004; 103: 3496-3502).

SMILES: Cc1c(C)c2c(c(C)c1O)CCC(C)(C(=O)O)O2 (stereo not shown) [trolox, Trolox]
- apoptosis (PI staining) [1]: no effect on the apoptotic rate
- colony formation (CFU-GM, BFU-E, CFU-E) [2]: did not inhibit colony formation
- effect on cell number [3]: no effect on cell number
- HO-1 protein induction [4]: not detected
